From patent publication US20060251692A1, “Use of glycol ethers as biodispersants in heating and cooling systems” (priority 2005, published 2006)

Tested on: biofilms
Test: pilot site cooling tower (building downtown Montreal) treated with biodispersant, DATS clogging monitor and direct microbiological measurements

COC(C)COC(C)CO (stereo not drawn) [dipropylene glycol methyl ether]
dig out of deposits covering the inside walls of the tower (300 ppm in recirculating water, no bactericide): allowed first the dig out of the deposits
DATS clogging monitor measurements (after few days of treatment): the measurements were stabilized
direct measurements of the microbiological activity (bacterial population vs initial state) (without any bactericide injection): downwards stabilization of the bacterial population
